# Assays:
# Format in all cases: in vivo
# [1] = tested on: Abutilon theophrasti (ABUTH); assay: Post-emergence herbicidal action, greenhouse pot test; conditions: rated visually after about 3 weeks vs untreated controls, 100% = plants have died
# Outline: (§1)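 Activity was scored by eye about 3 weeks after treatment against untreated plants, where 100% means dead plants and 0% means no difference. Plants at the one-leaf stage received a foliar spray of WP or EC formulations in water plus 0.5% additive (600 l/ha, up to 20 g/ha). Plants were grown in sandy loam pots in a greenhouse for 2–3 weeks before spraying.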
# [2] = tested on: Amaranthus retroflexus (AMARE); assay: as above; conditions: rated visually after about 3 weeks vs untreated controls, 100% = plants have died
# Outline: as §1
# [3] = tested on: Lolium rigidum (LOLRI); assay: as above; conditions: dosage 20 g/ha
# Outline: as §1
# [4] = tested on: Pharbitis purpurea (PHBPU); assay: as above
# Outline: as §1
# [5] = tested on: Polygonum convolvulus (POLCO); assay: as above
# Outline: as §1
# [6] = tested on: Veronica persica (VERPE); assay: as above
# Outline: as §1
# [7] = tested on: Viola tricolor (VIOTR); assay: as above
# Outline: as §1
# [8] = tested on: Alopecurus myosuroides (ALOMY); assay: Post-emergence herbicidal action, greenhouse pot test (also comparative test C); conditions: rated visually after about 3 weeks vs untreated controls, 100% = plants have died
# Outline: (§2)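 Greenhouse pot plants in sandy loam were sprayed post-emergence at the one-leaf stage (2–3 weeks after sowing) with WP or EC formulations plus 0.5% additive at 600 l/ha water. Activity was rated visually after about 3 weeks versus untreated controls (100% = dead, 0% = like control); rates were 20 g/ha or less, and 5 g/ha or less in the comparative test.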
# [9] = tested on: Echinochloa crus-galli (ECHCG); assay: as above; conditions: for Post-emergence action at 1.25 g/ha against ECHCG in %: rated visually after about 3 weeks vs untreated controls, 100% = plants have died
# Outline: as §2
# [10] = tested on: Matricaria inodora (MATIN); assay: as above
# Outline: as §2
# [11] = tested on: Setaria viridis (SETVI); assay: as above; conditions: for Post-emergence action against SETVI: 20 g/ha
# Outline: as §2
# [12] = tested on: Glycine max (GLXMA); assay: Post-emergence crop plant compatibility, greenhouse pot test; conditions: 1.25 g/ha
# Outline: (§3)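 Values are visual % damage versus untreated controls (100% = plants died) about 3 weeks after treatment. Plants in sandy loam were sprayed at the one-leaf stage, 2–3 weeks after sowing, with aqueous WP/EC preparations plus 0.5% additive at 600 l/ha; a/b/c mark different dose levels.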
# [13] = tested on: Triticum aestivum (TRZAS); assay: as above; conditions: vs untreated controls
# Outline: as §3
# [14] = tested on: Zea mays (ZEAMX); assay: as above; conditions: 1.25 g/ha, vs untreated controls
# Outline: as §3
# [15] = tested on: Oryza sativa (ORYSA); assay: Post-emergence crop plant compatibility, greenhouse pot test (also comparative test C); conditions: for Post-emergence action against ORYSA (crop plant compatibility): vs untreated controls
# Outline: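 Visual damage versus untreated plants (0% = like control, 100% = plants died) was scored about 3 weeks after a post-emergence spray in greenhouse pots. Treatment: one-leaf stage, WP or EC in water at 600 l/ha with 0.5% additive; a/b/c mark different dosages on the same crop.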
# [16] = tested on: Avena fatua (AVEFA); assay: Post-emergence herbicidal action, greenhouse pot test; conditions: 20 g/ha, rated visually after about 3 weeks vs untreated controls, 100% = plants have died
# Outline: as §1
SMILES,Post-emergence action at 1.25 g/ha against ABUTH in % [1],Post-emergence action at 5 g/ha against ABUTH in % [1],Post-emergence action at 20 g/ha against ABUTH in % [1],Post-emergence action at 1.25 g/ha against AMARE in % [2],Post-emergence action at 5 g/ha against AMARE in % [2],Post-emergence action at 20 g/ha against AMARE in % [2],Post-emergence action against LOLRI in % [3],Post-emergence action against PHBPU in % ([4]; dosage 1.25 g/ha),Post-emergence action against PHBPU in % ([4]; dosage 5 g/ha),Post-emergence action against PHBPU in % ([4]; dosage 20 g/ha),Post-emergence action against POLCO in % ([5]; dosage 5 g/ha),Post-emergence action against POLCO in % ([5]; dosage 20 g/ha),Post-emergence action against VERPE ([6]; 1.25 g/ha),Post-emergence action against VERPE ([6]; 5 g/ha),Post-emergence action against VERPE ([6]; 20 g/ha),Post-emergence action against VIOTR ([7]; 1.25 g/ha),Post-emergence action against VIOTR ([7]; 5 g/ha),Post-emergence action against VIOTR ([7]; 20 g/ha),Post-emergence action at 20 g/ha against ALOMY in % [8],Post-emergence action against ECHCG in % ([9]; dosage 5 g/ha),other results
CCOCCOC(=O)COc1ccccc1Oc1cc(-n2c(=O)cc(C(F)(F)F)n(C)c2=O)c(F)cc1[N+](=O)[O-] [I.6-2],100%,100%,100%,100%,100%,100%,90%,100%,100%,100%,100%,100%,100%,100%,100%,100%,100%,100%,90%,90%,"Post-emergence action against ECHCG in % ([9]; dosage 20 g/ha): 100%; Post-emergence action against MATIN in % ([10]; dosage 5 g/ha): 90%; Post-emergence action against MATIN in % ([10]; dosage 20 g/ha): 100%; Post-emergence action against SETVI [11]: 100%; Post-emergence action against SETVI in % ([11]; dosage 1.25 g/ha): 100%; Post-emergence action against SETVI in % ([11]; dosage 5 g/ha): 100%; Post-emergence action against GLXMA in % [12]: 20%; Post-emergence action against TRZAS (crop plant compatibility) ([13]; 1.25 g/ha): 20%; Post-emergence action against TRZAS (crop plant compatibility) ([13]; 5 g/ha): 20%; Post-emergence action against ZEAMX (crop plant compatibility) [14]: 20%; Post-emergence action against ORYSA (crop plant compatibility) ([15]; 1.25 g/ha): 0%; Post-emergence action against ORYSA (crop plant compatibility) ([15]; 5 g/ha): 0%; Post-emergence action against ORYSA in % ([15]; 20 g/ha, crop plant compatibility): 20%"
Cn1c(C(F)(F)F)cc(=O)n(-c2cc(Oc3ccccc3OCC(=O)OCC3CCOC3)c(Cl)cc2F)c1=O (stereo not drawn) [I.7-72],100%,100%,100%,100%,100%,100%,80%,100%,100%,100%,100%,100%,90%,100%,100%,100%,100%,100%,100%,100%,Post-emergence action at 20 g/ha against AVEFA in % [16]: 100%; Post-emergence action against POLCO in % ([5]; dosage 1.25 g/ha): 80%; Post-emergence action at 1.25 g/ha against ECHCG in % [9]: 80%; Post-emergence action against ECHCG in % ([9]; dosage 20 g/ha): 100%; Post-emergence action against MATIN in % ([10]; dosage 5 g/ha): 100%; Post-emergence action against MATIN in % ([10]; dosage 20 g/ha): 100%; Post-emergence action against SETVI [11]: 100%; Post-emergence action against SETVI in % ([11]; dosage 1.25 g/ha): 100%; Post-emergence action against SETVI in % ([11]; dosage 5 g/ha): 100%; Post-emergence action against TRZAS (crop plant compatibility) ([13]; 1.25 g/ha): 10%; Post-emergence action against ZEAMX (crop plant compatibility) [14]: 20%; Post-emergence action against ORYSA (crop plant compatibility) ([15]; 1.25 g/ha): 0%
Cn1c(C(F)(F)F)cc(=O)n(-c2cc(Oc3ccccc3OCC(=O)OCCC#N)c(Cl)cc2F)c1=O [I.7-179],100%,100%,100%,100%,100%,100%,100%,100%,100%,100%,100%,100%,100%,100%,100%,100%,100%,100%,100%,100%,Post-emergence action at 20 g/ha against AVEFA in % [16]: 80%; Post-emergence action against ECHCG in % ([9]; dosage 20 g/ha): 100%; Post-emergence action against MATIN in % ([10]; dosage 1.25 g/ha): 80%; Post-emergence action against MATIN in % ([10]; dosage 5 g/ha): 100%; Post-emergence action against MATIN in % ([10]; dosage 20 g/ha): 100%; Post-emergence action against SETVI [11]: 100%; Post-emergence action against SETVI in % ([11]; dosage 1.25 g/ha): 100%; Post-emergence action against SETVI in % ([11]; dosage 5 g/ha): 100%; Post-emergence action against TRZAS (crop plant compatibility) ([13]; 1.25 g/ha): 0%; Post-emergence action against TRZAS (crop plant compatibility) ([13]; 5 g/ha): 0%; Post-emergence action against ZEAMX (crop plant compatibility) [14]: 0%; Post-emergence action against ORYSA (crop plant compatibility) ([15]; 1.25 g/ha): 0%
COCCOC(=O)COc1ccccc1Oc1cc(-n2c(=O)cc(C(F)(F)F)n(C)c2=O)c(F)cc1Br [I.8-1],100%,100%,100%,100%,100%,100%,80%,100%,100%,100%,100%,100%,100%,100%,100%,100%,100%,100%,100%,100%,Post-emergence action at 20 g/ha against AVEFA in % [16]: 80%; Post-emergence action against POLCO in % ([5]; dosage 1.25 g/ha): 90%; Post-emergence action at 5 g/ha against ALOMY in % [8]: 100%; Post-emergence action at 1.25 g/ha against ECHCG in % [9]: 80%; Post-emergence action against ECHCG in % ([9]; dosage 20 g/ha): 100%; Post-emergence action against MATIN in % ([10]; dosage 1.25 g/ha): 100%; Post-emergence action against MATIN in % ([10]; dosage 5 g/ha): 100%; Post-emergence action against MATIN in % ([10]; dosage 20 g/ha): 100%; Post-emergence action against SETVI [11]: 100%; Post-emergence action against SETVI in % ([11]; dosage 1.25 g/ha): 100%; Post-emergence action against SETVI in % ([11]; dosage 5 g/ha): 100%; Post-emergence action against TRZAS (crop plant compatibility) ([13]; 1.25 g/ha): 20%; Post-emergence action against ZEAMX (crop plant compatibility) [14]: 20%; Post-emergence action against ORYSA (crop plant compatibility) ([15]; 1.25 g/ha): 0%; Post-emergence action against ORYSA (crop plant compatibility) ([15]; 5 g/ha): 20%
Cn1c(C(F)(F)F)cc(=O)n(-c2cc(Oc3ccccc3OCC(=O)OCc3ccccn3)c(Br)cc2F)c1=O [I.8-276],100%,100%,100%,100%,100%,100%,100%,100%,100%,100%,100%,100%,100%,100%,100%,100%,100%,100%,100%,100%,Post-emergence action at 20 g/ha against AVEFA in % [16]: 80%; Post-emergence action at 5 g/ha against ALOMY in % [8]: 80%; Post-emergence action against ECHCG in % ([9]; dosage 20 g/ha): 100%; Post-emergence action against MATIN in % ([10]; dosage 1.25 g/ha): 80%; Post-emergence action against MATIN in % ([10]; dosage 5 g/ha): 80%; Post-emergence action against MATIN in % ([10]; dosage 20 g/ha): 100%; Post-emergence action against SETVI [11]: 100%; Post-emergence action against SETVI in % ([11]; dosage 1.25 g/ha): 100%; Post-emergence action against SETVI in % ([11]; dosage 5 g/ha): 100%; Post-emergence action against TRZAS (crop plant compatibility) ([13]; 1.25 g/ha): 20%; Post-emergence action against TRZAS (crop plant compatibility) ([13]; 5 g/ha): 20%; Post-emergence action against ZEAMX (crop plant compatibility) [14]: 20%; Post-emergence action against ORYSA (crop plant compatibility) ([15]; 1.25 g/ha): 20%
